Here are results for three substances from patent US20030232754A1, “Use of GLP-1 peptides” (priority 1996, published 2003).

Where two headings read alike, the source gives them in different places. No end group written: not given here.

One assay has as its system Healthy human volunteers. The assay can be described thus: Effect of iv infusion on satiety, hunger, fullness, appetite (visual analogue scale) and ad libitum energy intake in a double-blind crossover trial. It counts as in vivo. From the text: Healthy human volunteers (20 subjects) were in a double-blind crossover trial given an iv infusion of 50 pmol/(kg·h) of GLP-1(7-36)amide or saline on separate, but otherwise identical experimental days. The infusion was started at 9.00 and lasted until 15.00. At 9.45 the subjects received a fixed amount of breakfast and at 14.15 they had lunch of an identical composition but ad libitum. The subjects rated their feeling of satiety, hunger, fullness and appetite on a visual analogue scale every half hour. The results are given below:
The energy intake of each subjects was measured. The intakes were 3.9 MJ with GLP-1 and 4.3 MJ with Saline resulting in a p-value of 0.009.

The subject of a further assay is rats. Conditions: cited from earlier work.
Assay [1] relates to Mice. The assay can be described thus: Appetite suppression in mice: Complan consumption after subcutaneous injection (Example 4). It counts as in vivo. Conditions: p<0.001. The protocol:
The test method was as described in Example 3 except that the mice were pre-exposed to formula milk (Complan®—a nutritionally complete infant milk substitute) for one day, then fasted one day. On the test day, consumption of Complan® was measured for each mouse during a 10 min period.
Mice were tested for appetite suppression by subcutaneous injection of GLP-1(7-36)amide dissolved in phosphate buffered saline.

Assay [2] relates to Mice. As to the kind of experiment: Appetite suppression in mice: sucrose consumption immediately after ip injection (Example 2). Conditions: mice fasted two days, ip 85 micrograms (3.4 mg/kg) in saline, tested immediately after injection, 10 minute period; p-value 0.002. The class given is in vivo. The protocol:
Mice were deprived of their normal food for two days and given free access to a 20% sucrose solution on the first day of food deprivation. After the two day food deprivation period, the mice were injected intraperitoneally with 0.5 ml of a solution containing the test substance. Immediately after injection, individual mice were placed in one of eight 15 cm square test boxes with a stainless steel grid floor and a glass drinking tube which projected into the box. […] Consumption of the sucrose solution was measured over a 10 minute period by electronically recording the total amount of contact with the sucrose solution during the test session. The degree of appetite suppression produced by a given test substance was determined by statistical comparison of the mean duration of sucrose consumption by control (vehicle treated) mice with that of mice treated with a test substance. The degree of appetite suppression in a treated group of mice was expressed as percent difference between the test and control group's response duration means. […]

The mark [3] stands for this setting: iv infusion 50 pmol/(kg·h), 9.00 to 15.00, 20 healthy subjects, rated every half hour, p = 0.007.

GLP-1(1-37) registered an Energy intake with Healthy human volunteers (ad libitum lunch during iv infusion 50 pmol/(kg·h), saline 4.3 MJ, p-value 0.009) of 3.9 mJ. Also, the “Satiety (visual analogue scale rating) versus saline” value in the assay on Healthy human volunteers (iv infusion 50 pmol/(kg·h), 9.00 to 15.00, 20 healthy subjects, rated every half hour, p = 0.006) is listed as “GLP-1 > Saline, p = 0.006”. The “Appetite (visual analogue scale rating) versus saline” value in the assay on Healthy human volunteers (setting [3]) is reported as “GLP-1 < Saline, p = 0.007”. The “Hunger (visual analogue scale rating) versus saline” value in the assay on Healthy human volunteers (setting [3]) is given as “GLP-1 < Saline, p = 0.007”. Also, in the assay on Healthy human volunteers (iv infusion 50 pmol/(kg·h), 9.00 to 15.00, 20 healthy subjects, rated every half hour, p = 0.010), the “Fullness (visual analogue scale rating) versus saline” value was “GLP-1 > Saline, p = 0.010”. The “Effect on food intake” value with rats (intracerebroventricular administration, Tang-Christensen et al. 1996) is listed as “profound effect”; in the assay on rats (intracerebroventricular administration, Turton et al. 1996), “profound effect”; in the assay with rats (peripheral administration, Tang-Christensen et al. 1996) it was “no significant effect”.

Take “GLP-1(1-36)amide (HDEFERHAEGTFTSDVSSYLEGQAAKEFIAWLVKGR-NH2; UniProt P01275 92-127, looked up, fragment) [fragment 1-36 of GLP-1 as C-terminal amide]”: in the assay with rats (route not stated, Tang-Christensen et al. 1996), the “Effect on food intake” value is listed as “no effect”.

As for GLP-1(7-36)amide, the “Suppression of feeding (Complan consumption)” value in the assay on Mice [1] (1 mg/kg, 30 min after injection) amounted to 45%. In the assay on Mice [1] (highest dose tested 20 mg/kg), the “Maximum effect, suppression of feeding (Complan consumption)” value came to 60%. For the same substance, the “Suppression of sucrose consumption” value in the assay with Mice [2] worked out at 60%.
